# Experiment: Enhanced solubility of beta-cyclodextrin in water containing ClO2 (slurry test)
# Type: physicochemical
# Settings: 100 g slurries of 5% beta-cyclodextrin (w/w) in 8000 ppm ClO2 vs ultrapure water, mixed at 200 rpm for 3 days, dried 2 days
compound,measurement,value
OC[C@H]1O[C@@H]2O[C@H]3[C@H](O)[C@@H](O)[C@@H](O[C@H]4[C@H](O)[C@@H](O)[C@@H](O[C@H]5[C@H](O)[C@@H](O)[C@@H](O[C@H]6[C@H](O)[C@@H](O)[C@@H](O[C@H]7[C@H](O)[C@@H](O)[C@@H](O[C@H]8[C@H](O)[C@@H](O)[C@@H](O[C@H]1[C@H](O)[C@H]2O)O[C@@H]8CO)O[C@@H]7CO)O[C@@H]6CO)O[C@@H]5CO)O[C@@H]4CO)O[C@@H]3CO [beta-cyclodextrin],"weight of dried undissolved beta-cyclodextrin from the ClO2 containing slurry, less than the control slurry",0.32 g

# Source: patent publication US20090054375A1, “Compositions, Systems, and/or Methods Involving Chlorine Dioxide” (priority 2007, published 2009)
